Experimental data taken from article PMC3949714 (PLoS ONE, 2014).
Like-named read-outs stand apart in the source and are kept apart here. Where no end group is shown, it is not given here.

Key:
[1] = molecular target: T1, mu-opioid receptors (MOR) (Mus musculus, UniProt P42866); test: cell-based; format: cell-based, murine
T1 construct: FLAG; expressed in transfected cells

[2] = RP-HPLC retention time (read by the paper as polarity); format: physicochemical; conditions: water/acetonitrile gradient with 0.1% formic acid, MS TIC detection
Protocol: An Agilent binary HPLC composing of an Agilent 1100 LC pump, an Agilent 1100 well plate auto-sampler (Agilent Technologies, Santa Clara, CA, USA) and a Jupiter 5 μ (C4, 300 A, 150×2.00 mm, 5 μ) RP HPLC column (Phenomenex, Torrance, CA, USA) were used for separation. The mobile phase flow rate was 200 µl/min and the volume of injection was 20 µL. The separations were performed using a binary solvent gradient; water (Milli-Q; Millipore Corporation, Bedford, MA) which contained 0.1% v/v formic acid was used as the solvent A and acetonitrile (Merck KGaA, Darmstadt, Germany) which contained 0.1% v/v formic acid (Nuplex industries Pty Ltd. (NSW, Australia) was used as the solvent B. The chromatographic separation was achieved using the gradient shown in Table 1.
An API 3000 tandem mass spectrometer equipped with a turbo ion spray was used as the detector. Detection was performed in total ion current (TIC) mode (MS1/Q1), in positive mode, within the range 200–3000 amu. The data were acquired and processed by Analyst 1.5 software (Applied Biosystems, Foster city, CA, USA). Mass spectra were obtained using: declustering potential (DF) of 16 V, focusing potential (FP) of 120 V, Entrance potential (EP) of 10 V, and Ion spray voltage (IS) of 5000 V. Structure identity of fragments was performed using the respective mass/charge (m/z) values of each peptide metabolite. Direct flow injections were carried out using Model 11 plus Harvard Syringe pump (Harvard Apparatus Inc, Holliston, MA, USA).

[3] = Biotransformation in homogenised inflamed tissue at pH 5.5 (LC/MS, mean residence time); conditions: for MRT: 120 min, AUMC/AUC of LC/MS peak intensity
[4] = molecular target: T2, delta-opioid receptors (DOR); format: cell-based; conditions: read-out: IC50 for the inhibition of forskolin induced cAMP in HEK-DOP cells
T2 construct: expressed in transfected cells

[5] = incubation of BE 1-17, Jupiter C4 column
[6] = incubation of BE 1-31, Jupiter C4 300 A column, 200 µl/min
[7] = incubation of BE 1-17 (115 µM) in rat inflamed tissue homogenate, MES pH 5.5, 37°C
[8] = incubation of BE 1-31 (115 µM) in rat inflamed tissue homogenate, MES pH 5.5, 37°C
[9] = rat inflamed tissue homogenate, MES pH 5.5, 37°C, 115 µM peptide, LC/MS
[10] = incubation of BE 1-11, Jupiter C4 column
[11] = incubation of BE 1-13, Jupiter C4 column
[12] = incubation of BE 1-11 (115 µM) in rat inflamed tissue homogenate, MES pH 5.5, 37°C
[13] = incubation of BE 1-13 (115 µM) in rat inflamed tissue homogenate, MES pH 5.5, 37°C

T1 sequence (P42866 whole entry): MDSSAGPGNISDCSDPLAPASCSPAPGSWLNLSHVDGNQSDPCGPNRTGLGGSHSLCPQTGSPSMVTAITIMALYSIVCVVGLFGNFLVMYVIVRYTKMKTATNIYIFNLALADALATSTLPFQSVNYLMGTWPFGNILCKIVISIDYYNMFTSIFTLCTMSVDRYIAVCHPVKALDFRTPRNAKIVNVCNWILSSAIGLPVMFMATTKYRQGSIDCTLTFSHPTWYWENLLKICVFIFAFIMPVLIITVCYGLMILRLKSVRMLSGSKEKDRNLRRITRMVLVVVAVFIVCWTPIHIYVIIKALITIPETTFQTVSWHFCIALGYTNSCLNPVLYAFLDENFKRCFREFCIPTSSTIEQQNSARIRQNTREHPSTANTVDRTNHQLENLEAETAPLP

YGGFMTSEK [BE 1–9]
Agonist character at MOR (extent of cAMP inhibition) [1]: partial agonist
RT [2, 5]: 18.13 min
RT [2, 6]: 20.2 min
MRT [3, 7]: 28
MRT [3, 8]: 11.4

YGGFMTSEKSQTPLVTLFKN [BE 1–20]
Effect of naloxone pre-treatment on cAMP inhibition through MOR [1]: inhibited by naloxone
IC50 ([1]; read-out: IC50 for the inhibition of forskolin induced cAMP in HEK-MOP cells): 5 nM
RT [2, 6]: 25.2 min
MRT [3, 8]: 34.2
IC50 [4]: 55 nM

YGGFMTSEKSQTPLVTL [BE 1–17]
Effect of naloxone pre-treatment on cAMP inhibition through MOR [1]: inhibited by naloxone
RT [2, 5]: 24.5 min
RT ([2]; incubation of BE 1-17, Jupiter C4 column, listed as BE 1-17): 24.3 min
RT [2, 6]: 24.5 min
MRT [3, 7]: 5.6
MRT [3, 8]: 25
Incubation period after which the peptide was undetectable [3, 9]: 15 min
IC50 [4]: 25 nM

YGGFMTSEKSQ [BE 1–11]
Effect of naloxone pre-treatment on cAMP inhibition through MOR [1]: inhibited by naloxone
Rt [2, 10]: 17.4 min
Rt [2, 11]: 17.4 min
RT [2, 5]: 17.58 min
RT [2, 6]: 19.96 min
MRT [3, 12]: 11
MRT [3, 13]: 10.5
MRT [3, 7]: 17.2
MRT [3, 8]: 57.8
Incubation period after which the peptide was undetectable [3, 9]: 30 min
IC50 [4]: 18 nM

BE 1-15: beta-endorphin N-terminal fragment, residues 1-15 (YGGFMTSEKSQTPLV; Beta-endorphin; UniProt P01189 237-251, looked up, fragment)
RT [2, 5]: 22.33 min
RT [2, 6]: 24.2 min
MRT [3, 7]: 8.3
MRT [3, 8]: 12

BE 10-28: beta-endorphin fragment, residues 10-28 (SQTPLVTLFKNAIIKNAYK; Beta-endorphin; UniProt P01189 246-264, looked up, fragment)
RT [2, 6]: 26.9 min
MRT [3, 8]: 32.3

BE 10-18: beta-endorphin fragment, residues 10-18 (SQTPLVTLF; Beta-endorphin; UniProt P01189 246-254, looked up, fragment)
RT [2, 6]: 28.2 min
MRT [3, 8]: 13.3

BE 2-16: des-tyrosine beta-endorphin fragment, residues 2-16 (GGFMTSEKSQTPLVT; Beta-endorphin; UniProt P01189 238-252, looked up, fragment)
RT [2, 5]: 20.43 min
MRT [3, 7]: 15.1

BE 6-31: beta-endorphin fragment, residues 6-31 (TSEKSQTPLVTLFKNAIIKNAYKKGE; Beta-endorphin; UniProt P01189 242-267, looked up, fragment)
RT [2, 6]: 24.7 min
MRT [3, 8]: 40

BE 5-24: beta-endorphin fragment, residues 5-24 (MTSEKSQTPLVTLFKNAIIK; Beta-endorphin; UniProt P01189 241-260, looked up, fragment)
RT [2, 6]: 19 min
MRT [3, 8]: 25.1

BE 20-27: beta-endorphin intermediate fragment, residues 20-27 (NAIIKNAY; Beta-endorphin; UniProt P01189 256-263, looked up, fragment)
RT [2, 6]: 16.1 min
MRT [3, 8]: 97.1

BE 20-28: beta-endorphin intermediate fragment, residues 20-28 (NAIIKNAYK; Beta-endorphin; UniProt P01189 256-264, looked up, fragment)
RT [2, 6]: 16.1 min
MRT [3, 8]: 87.6

BE 2-14: beta-endorphin fragment, residues 2-14 (GGFMTSEKSQTPL; Beta-endorphin; UniProt P01189 238-250, looked up, fragment)
RT [2, 5]: 20.1 min
RT [2, 6]: 22.2 min
MRT [3, 7]: 18.9
MRT [3, 8]: 25.1

BE 20-29: beta-endorphin fragment, residues 20-29 (NAIIKNAYKK; Beta-endorphin; UniProt P01189 256-265, looked up, fragment)
RT [2, 6]: 14.3 min
MRT [3, 8]: 8.4

YGGFMTSEKSQTPLVTLFKNAIIKNVHKKGQ [BE 1–31, Beta-endorphin]
Effect of naloxone pre-treatment on cAMP inhibition through MOR [1]: inhibited by naloxone
IC50 [1]: 24 nM
RT [2, 6]: 25.8 min
MRT [3, 8]: 2.9
Peak intensity observed (remaining) at 15 min ([3]; rat inflamed paw tissue homogenate (1 g/10 ml MES buffer) pH 5.5, 37°C, 115 µM peptide, LC/MS): 7.5%
IC50 [4]: 57 nM

BE 2-11: des-tyrosine beta-endorphin fragment, residues 2-11 (GGFMTSEKSQ; Beta-endorphin; UniProt P01189 238-247, looked up, fragment)
Rt [2, 10]: 15.7 min
Rt [2, 11]: 15.7 min
RT [2, 5]: 15.52 min
RT [2, 6]: 17.5 min
MRT [3, 12]: 15
MRT [3, 13]: 20.2
MRT [3, 7]: 31.8
MRT [3, 8]: 37

BE 20-24: beta-endorphin intermediate fragment, residues 20-24 (NAIIK; Beta-endorphin; UniProt P01189 256-260, looked up, fragment)
RT [2, 6]: 16.1 min
MRT [3, 8]: 98

C=CCN1C[C@H](C)N([C@H](c2ccc(C(=O)N(CC)CC)cc2)c2cccc(OC)c2)C[C@H]1C [SNC 80, 4-[(R)-[(2S,5R)-4-allyl-2,5-dimethylpiperazin-1-yl](3-methoxyphenyl)methyl]-N,N-diethylbenzamide, reference compound]
IC50 ([1]; Table 2 as titled, 20000 cells/well, FSK 100 µM, 0.3 nM to 1 µM in half log intervals, 30 min, Alphascreen, one-site fit, at least three independent experiments, read-out: IC50 for the inhibition of forskolin induced cAMP in HEK-MOP cells): 8.1 nM

YGGFMTSEKSQTP [BE 1–13]
Effect of naloxone pre-treatment on cAMP inhibition through MOR [1]: inhibited by naloxone
Rt [2, 11]: 18.4 min
Rt ([2]; incubation of BE 1-13, Jupiter C4 column, listed as BE 1-13): 18.5 min
RT [2, 5]: 18.6 min
RT ([2]; incubation of BE 1-17, Jupiter C4 column, listed as BE 1-13): 18.78 min
RT [2, 6]: 20.9 min
Time present as metabolite within inflamed tissue homogenates ([3]; formed during incubation of BE 1–31, pH 5.5, 37°C): over 1 hour
MRT [3, 13]: 8.3
MRT [3, 7]: 21.7
MRT [3, 8]: 44
Time for which the peptide was detected in inflamed tissue homogenates [3, 9]: 30 min
IC50 [4]: 59 nM

BE 20-31: beta-endorphin C-terminal fragment, residues 20-31 (NAIIKNAYKKGE; Beta-endorphin; UniProt P01189 256-267, looked up, fragment)
RT [2, 6]: 14.3 min
MRT [3, 8]: 72.2

BE 19-31: beta-endorphin C-terminal fragment, residues 19-31 (KNAIIKNAYKKGE; Beta-endorphin; UniProt P01189 255-267, looked up, fragment)
RT [2, 6]: 13.67 min
MRT [3, 8]: 80

BE 15-24: beta-endorphin fragment, residues 15-24 (VTLFKNAIIK; Beta-endorphin; UniProt P01189 251-260, looked up, fragment)
RT [2, 6]: 22.44 min
MRT [3, 8]: 25.2

BE 2-9: des-tyrosine beta-endorphin fragment, residues 2-9 (GGFMTSEK; Beta-endorphin; UniProt P01189 238-245, looked up, fragment)
Rt [2, 10]: 15.8 min
Rt [2, 11]: 15.8 min
RT [2, 5]: 15.87 min
RT [2, 6]: 18.38 min
MRT [3, 12]: 17
MRT [3, 13]: 19.8
MRT [3, 7]: 21
MRT [3, 8]: 20
